# Measurements taken from ChEMBL document CHEMBL3045426, “Synthesis, Antiviral and Antibacterial Activities of Isatin Mannich Bases” (Med Chem Res, 2005).
# Tested on: not listed separately
# Test: Selectivity index, ratio of CC50 for human MT4 cells to EC50 for HIV1 3B infected in MT4 cells
# Format: toxicity, cell-based
# Details: read-out: Ratio CC50/EC50
row,Compound,selectivity ratio
1,COc1cc(Cc2cnc(/N=C3\C(=O)N(CN4CCN(c5ccc(F)cc5)CC4)c4ccc(Cl)cc43)nc2N)cc(OC)c1OC,3

# Tested on: Vibrio cholerae
# Test: Antimicrobial activity against Vibrio cholerae 01 after 18 to 20 hr by agar dilution method
# Format: functional
# Details: 1
row,Compound,MIC [µg/mL]
1,COc1cc(Cc2cnc(/N=C3\C(=O)N(CN4CCN(c5ccc(F)cc5)CC4)c4ccc(Cl)cc43)nc2N)cc(OC)c1OC,4.88

# Tested on: Priestia megaterium
# Test: Antimicrobial activity against Bacillus megaterium after 18 to 20 hr by agar dilution method
# Format: functional
# Details: not given
row,Compound,MIC [µg/mL]
1,COc1cc(Cc2cnc(/N=C3\C(=O)N(CN4CCN(c5ccc(F)cc5)CC4)c4ccc(Cl)cc43)nc2N)cc(OC)c1OC,625

# Tested on: Enterobacter
# Test: Antimicrobial activity against Enterobacter after 18 to 20 hr by agar dilution method
# Format: functional
# Details: not given
row,Compound,MIC [µg/mL]
1,COc1cc(Cc2cnc(/N=C3\C(=O)N(CN4CCN(c5ccc(F)cc5)CC4)c4ccc(Cl)cc43)nc2N)cc(OC)c1OC,625

# Tested on: Citrobacter freundii
# Test: Antimicrobial activity against Citrobacter freundii after 18 to 20 hr by agar dilution method
# Format: functional
# Details: not given
row,Compound,MIC [µg/mL]
1,COc1cc(Cc2cnc(/N=C3\C(=O)N(CN4CCN(c5ccc(F)cc5)CC4)c4ccc(Cl)cc43)nc2N)cc(OC)c1OC,625

# Tested on: Salmonella enteritidis
# Test: Antimicrobial activity against Salmonella enterica subsp. enterica serovar Enteritidis after 18 to 20 hr by agar dilution method
# Format: functional
# Details: not given
row,Compound,MIC [µg/mL]
1,COc1cc(Cc2cnc(/N=C3\C(=O)N(CN4CCN(c5ccc(F)cc5)CC4)c4ccc(Cl)cc43)nc2N)cc(OC)c1OC,625

# Tested on: Salmonella typhimurium
# Test: Antimicrobial activity against Salmonella enterica subsp. enterica serovar Typhimurium after 18 to 20 hr by agar dilution method
# Format: functional
# Details: not given
row,Compound,MIC [µg/mL]
1,COc1cc(Cc2cnc(/N=C3\C(=O)N(CN4CCN(c5ccc(F)cc5)CC4)c4ccc(Cl)cc43)nc2N)cc(OC)c1OC,625

# Tested on: Proteus mirabilis
# Test: Antimicrobial activity against Proteus mirabilis after 18 to 20 hr by agar dilution method
# Format: functional
# Details: not given
row,Compound,MIC [µg/mL]
1,COc1cc(Cc2cnc(/N=C3\C(=O)N(CN4CCN(c5ccc(F)cc5)CC4)c4ccc(Cl)cc43)nc2N)cc(OC)c1OC,625

# Tested on: Proteus vulgaris
# Test: Antimicrobial activity against Proteus vulgaris after 18 to 20 hr by agar dilution method
# Format: functional
# Details: not given
row,Compound,MIC [µg/mL]
1,COc1cc(Cc2cnc(/N=C3\C(=O)N(CN4CCN(c5ccc(F)cc5)CC4)c4ccc(Cl)cc43)nc2N)cc(OC)c1OC,625

# Tested on: Edwardsiella tarda
# Test: Antimicrobial activity against Edwardsiella tarda after 18 to 20 hr by agar dilution method
# Format: functional
# Details: not given
row,Compound,MIC [µg/mL]
1,COc1cc(Cc2cnc(/N=C3\C(=O)N(CN4CCN(c5ccc(F)cc5)CC4)c4ccc(Cl)cc43)nc2N)cc(OC)c1OC,625

# Tested on: Escherichia coli
# Test: Antimicrobial activity against Escherichia coli NCTC 10418 after 18 to 20 hr by agar dilution method
# Format: functional
# Details: not given
row,Compound,MIC [µg/mL]
1,COc1cc(Cc2cnc(/N=C3\C(=O)N(CN4CCN(c5ccc(F)cc5)CC4)c4ccc(Cl)cc43)nc2N)cc(OC)c1OC,625

# Tested on: Salmonella typhi
# Test: Antimicrobial activity against Salmonella enterica subsp. enterica serovar Typhi after 18 to 20 hr by agar dilution method
# Format: functional
# Details: not given
row,Compound,MIC [µg/mL]
1,COc1cc(Cc2cnc(/N=C3\C(=O)N(CN4CCN(c5ccc(F)cc5)CC4)c4ccc(Cl)cc43)nc2N)cc(OC)c1OC,625

# Tested on: Salmonella paratyphi
# Test: Antimicrobial activity against Salmonella enterica subsp. enterica serovar Paratyphi A after 18 to 20 hr by agar dilution method
# Format: functional
# Details: not given
row,Compound,MIC [µg/mL]
1,COc1cc(Cc2cnc(/N=C3\C(=O)N(CN4CCN(c5ccc(F)cc5)CC4)c4ccc(Cl)cc43)nc2N)cc(OC)c1OC,312

# Tested on: Vibrio parahaemolyticus
# Test: Antimicrobial activity against Vibrio parahaemolyticus after 18 to 20 hr by agar dilution method
# Format: functional
# Details: not given
row,Compound,MIC [µg/mL]
1,COc1cc(Cc2cnc(/N=C3\C(=O)N(CN4CCN(c5ccc(F)cc5)CC4)c4ccc(Cl)cc43)nc2N)cc(OC)c1OC,39.1

# Tested on: Vibrio cholerae
# Test: Antimicrobial activity against Vibrio cholerae 0139 after 18 to 20 hr by agar dilution method
# Format: functional
# Details: 139
row,Compound,MIC [µg/mL]
1,COc1cc(Cc2cnc(/N=C3\C(=O)N(CN4CCN(c5ccc(F)cc5)CC4)c4ccc(Cl)cc43)nc2N)cc(OC)c1OC,625

# Tested on: Vibrio fluvialis
# Test: Antimicrobial activity against Vibrio fluvialis after 18 to 20 hr by agar dilution method
# Format: functional
# Details: not given
row,Compound,MIC [µg/mL]
1,COc1cc(Cc2cnc(/N=C3\C(=O)N(CN4CCN(c5ccc(F)cc5)CC4)c4ccc(Cl)cc43)nc2N)cc(OC)c1OC,1250

# Tested on: Vibrio mimicus
# Test: Antimicrobial activity against Vibrio mimicus after 18 to 20 hr by agar dilution method
# Format: functional
# Details: not given
row,Compound,MIC [µg/mL]
1,COc1cc(Cc2cnc(/N=C3\C(=O)N(CN4CCN(c5ccc(F)cc5)CC4)c4ccc(Cl)cc43)nc2N)cc(OC)c1OC,4.88

# Tested on: Pseudomonas aeruginosa
# Test: Antimicrobial activity against Pseudomonas aeruginosa after 18 to 20 hr by agar dilution method
# Format: functional
# Details: not given
row,Compound,MIC [µg/mL]
1,COc1cc(Cc2cnc(/N=C3\C(=O)N(CN4CCN(c5ccc(F)cc5)CC4)c4ccc(Cl)cc43)nc2N)cc(OC)c1OC,1250

# Tested on: Staphylococcus aureus
# Test: Antimicrobial activity against Staphylococcus aureus after 18 to 20 hr by agar dilution method
# Format: functional
# Details: not given
row,Compound,MIC [µg/mL]
1,COc1cc(Cc2cnc(/N=C3\C(=O)N(CN4CCN(c5ccc(F)cc5)CC4)c4ccc(Cl)cc43)nc2N)cc(OC)c1OC,625

# Tested on: Morganella morganii
# Test: Antimicrobial activity against Morganella morganii after 18 to 20 hr by agar dilution method
# Format: functional
# Details: not given
row,Compound,MIC [µg/mL]
1,COc1cc(Cc2cnc(/N=C3\C(=O)N(CN4CCN(c5ccc(F)cc5)CC4)c4ccc(Cl)cc43)nc2N)cc(OC)c1OC,625

# Tested on: Shigella boydii
# Test: Antimicrobial activity against Shigella boydii after 18 to 20 hr by agar dilution method
# Format: functional
# Details: not given
row,Compound,MIC [µg/mL]
1,COc1cc(Cc2cnc(/N=C3\C(=O)N(CN4CCN(c5ccc(F)cc5)CC4)c4ccc(Cl)cc43)nc2N)cc(OC)c1OC,19.5

# Tested on: Plesiomonas
# Test: Antimicrobial activity against Plesiomonas after 18 to 20 hr by agar dilution method
# Format: functional
# Details: not given
row,Compound,MIC [µg/mL]
1,COc1cc(Cc2cnc(/N=C3\C(=O)N(CN4CCN(c5ccc(F)cc5)CC4)c4ccc(Cl)cc43)nc2N)cc(OC)c1OC,9.76

# Tested on: Shigella sonnei
# Test: Antimicrobial activity against Shigella sonnei after 18 to 20 hr by agar dilution method
# Format: functional
# Details: not given
row,Compound,MIC [µg/mL]
1,COc1cc(Cc2cnc(/N=C3\C(=O)N(CN4CCN(c5ccc(F)cc5)CC4)c4ccc(Cl)cc43)nc2N)cc(OC)c1OC,1250

# Tested on: Klebsiella pneumoniae
# Test: Antimicrobial activity against Klebsiella pneumoniae after 18 to 20 hr by agar dilution method
# Format: functional
# Details: not given
row,Compound,MIC [µg/mL]
1,COc1cc(Cc2cnc(/N=C3\C(=O)N(CN4CCN(c5ccc(F)cc5)CC4)c4ccc(Cl)cc43)nc2N)cc(OC)c1OC,1250

# Tested on: Klebsiella pneumoniae
# Test: Antimicrobial activity against Klebsiella pneumoniae subsp. ozaenae after 18 to 20 hr by agar dilution method
# Format: functional
# Details: not given
row,Compound,MIC [µg/mL]
1,COc1cc(Cc2cnc(/N=C3\C(=O)N(CN4CCN(c5ccc(F)cc5)CC4)c4ccc(Cl)cc43)nc2N)cc(OC)c1OC,625

# Tested on: Mycobacterium tuberculosis
# Test: Antimycobacterial activity against Mycobacterium tuberculosis H37Rv ATCC 27294 at 6.25 ug/ml by MABA
# Format: functional
# Details: not given
row,Compound,inhibition at 6.25 µg/mL [%]
1,COc1cc(Cc2cnc(/N=C3\C(=O)N(CN4CCN(c5ccc(F)cc5)CC4)c4ccc(Cl)cc43)nc2N)cc(OC)c1OC,35

# Tested on: not listed separately
# Test: Cytotoxicity against Homo sapiens (human) HuH7 cells assessed as cell growth at 50 ug/ml after 3 days by Neutral red assay
# Format: cell-based, Huh-7
# Details: read-out: Activity
row,Compound,"viability at 72 h, 50 ug/ml [%]"
1,COc1cc(Cc2cnc(/N=C3\C(=O)N(CN4CCN(c5ccc(F)cc5)CC4)c4ccc(Cl)cc43)nc2N)cc(OC)c1OC,64

# Tested on: not listed separately
# Test: Cytotoxicity against Homo sapiens (human) CEM cells after 5 days by MTT assay
# Format: cell-based
# Details: CEM cells (CCRF-CEM)
row,Compound,CC50 at 120 h [µg/mL]
1,COc1cc(Cc2cnc(/N=C3\C(=O)N(CN4CCN(c5ccc(F)cc5)CC4)c4ccc(Cl)cc43)nc2N)cc(OC)c1OC,71

# Tested on: Human immunodeficiency virus 1
# Test: Antiviral activity against Human immunodeficiency virus 1 IIIB infected CEM cells assessed as protection against viral infection after 6 days by XTT assay
# Format: functional, CCRF-CEM
# Design: concentration or dose not given beside the values
# Details: not given
row,Compound,Activity [%]
1,COc1cc(Cc2cnc(/N=C3\C(=O)N(CN4CCN(c5ccc(F)cc5)CC4)c4ccc(Cl)cc43)nc2N)cc(OC)c1OC,22.98

# Tested on: Human immunodeficiency virus 1
# Test: Antiviral activity against Human immunodeficiency virus 1 IIIB infected CEM cells assessed as inhibition of virus-induced cytopathicity after 6 days by XTT assay
# Format: functional, organism-based
# Details: CCRF-CEM, 144 h
row,Compound,EC50 [µg/mL]
1,COc1cc(Cc2cnc(/N=C3\C(=O)N(CN4CCN(c5ccc(F)cc5)CC4)c4ccc(Cl)cc43)nc2N)cc(OC)c1OC,> 71

# Tested on: not listed separately
# Test: Cytotoxicity against Homo sapiens (human) MT4 cells after 5 days by MTT assay
# Format: cell-based
# Details: not given
row,Compound,CC50 at 120 h [µg/mL]
1,COc1cc(Cc2cnc(/N=C3\C(=O)N(CN4CCN(c5ccc(F)cc5)CC4)c4ccc(Cl)cc43)nc2N)cc(OC)c1OC,65.6

# Tested on: Human immunodeficiency virus 1
# Test: Antiviral activity against Human immunodeficiency virus 1 IIIB infected MT4 cells assessed as inhibition of virus-induced cytopathicity after 5 days by MTT assay
# Format: functional, organism-based
# Details: MT4, 120 h
row,Compound,EC50 [µg/mL]
1,COc1cc(Cc2cnc(/N=C3\C(=O)N(CN4CCN(c5ccc(F)cc5)CC4)c4ccc(Cl)cc43)nc2N)cc(OC)c1OC,56.1

# Tested on: Hepatitis C virus
# Test: Antiviral activity against Hepatitis C virus BM4-5 infected in Huh7 cells assessed as inhibition of viral RNA replication by phosphor screening method
# Format: functional, Hepacivirus hominis, Huh-7
# Details: not given
row,Compound,inhibition (INH) [%]
1,COc1cc(Cc2cnc(/N=C3\C(=O)N(CN4CCN(c5ccc(F)cc5)CC4)c4ccc(Cl)cc43)nc2N)cc(OC)c1OC,80

# Tested on: Human immunodeficiency virus 1
# Test: Antiviral activity against Human immunodeficiency virus 1 IIIB infected MT4 cells assessed as protection against viral infection after 5 days by MTT assay
# Format: functional
# Design: concentration or dose not given beside the values
# Details: not given
row,Compound,Activity [%]
1,COc1cc(Cc2cnc(/N=C3\C(=O)N(CN4CCN(c5ccc(F)cc5)CC4)c4ccc(Cl)cc43)nc2N)cc(OC)c1OC,59.6
